# Test results from US20250043360A1, “USE OF RPN11 MARKER IN DETECTION OF MYELOMA AND DISEASE RISK THEREOF, PROGNOSIS ANALYSIS AND TREATMENT MEDICAMENT” (Peking University, priority 2022, published 2025).
# Experiments:
# Assay type in all cases: cell-based
# LP-1 cells [1] = experiment: CCK cell counting assay, RPN11 inhibitor combined with Lenalidomide or Dexamethasone; conditions: vs either agent alone, range of concentrations, FIG. 8
# Protocol: (§1) CCK kit was used to detect cell proliferation of LP-1 cells stably overexpressing and knocking down RPN11: after the transfected cells were cultured for 48 h, the cells were digested with 0.25% trypsin and counted, inoculated in a 96-well plate at a concentration of 1×10^4 cells/mL, 100 μL in each well; 10 μL of CCK8 reagent was added to each well of the 96-well plate in the dark, the culture plate was shaken for 3 min, then placed into the incubator to continue culturing for 2 h, and the culture plate was taken out and the OD value was measured at a wavelength of 450 nm with a microplate reader.
# LP-1 cells were treated with RPN11 inhibitors (OPA or Capzimin) or/and Lenalidomide or Dexamethasone (within a range of concentrations), and the cell proliferation ability was detected using CCK cell counting assay.
# LP-1 cells [2] = experiment: CCK cell counting experiment, wild-type LP-1 cells; conditions: vs control group (Vehicle), OPA 10 μM, Capzimin 2 μM, FIG. 7A
# Protocol: as §1
# (§2) Wild-type or bortezomib-resistant LP-1 cells (LP-1 or LP-1BR) were treated with Vehicle or RPN11 inhibitor (OPA or Capzimin) separately, and the proliferation and apoptosis of LP-1BR cells were detected through CCK cell counting experiment and cell apoptosis experiment.
# [3] = tested on: bortezomib-resistant LP-1 cells (LP-1BR); experiment: CCK cell counting experiment, bortezomib-resistant LP-1 cells; conditions: LP-1BR cells, vs control group (Vehicle); OPA 10 μM, Capzimin 2 μM; FIG. 7A
# Protocol: as §1, §2
# LP-1 cells [4] = experiment: Cell apoptosis experiment, wild-type LP-1 cells; conditions: vs control group (Vehicle), OPA 10 μM, Capzimin 2 μM, FIG. 7B
# Protocol: (§3) Apoptosis was detected in LP-1 cells stably overexpressing and knocking down RPN11. The cells were treated with camptothecin (CPT) for 24 h, washed with PBS, double-stained with Annexin V-APC/propidium iodide (PI) for 15 min at room temperature in the dark, and cell collection and analysis were conducted on each sample using a FACS Calibur flow cytometer.
# as §2
# [5] = tested on: bortezomib-resistant LP-1 cells (LP-1BR); experiment: Cell apoptosis experiment, bortezomib-resistant LP-1 cells; conditions: LP-1BR cells, vs control group (Vehicle); OPA 10 μM, Capzimin 2 μM; FIG. 7B
# Protocol: as §3, §2
structure (smiles),measurement,setting,value
c1cnc2c(c1)ccc1cccnc12 [OPA],combined treatment effect on inhibiting the growth and proliferation,LP-1 cells [1]; combined with dexamethasone,synergistic effect
same,combined treatment effect on inhibiting the growth and proliferation,LP-1 cells [1]; combined with lenalidomide,synergistic effect
same,proliferation ability,LP-1 cells [2],significantly reduced
same,proliferation ability,[3],significantly reduced
same,number of apoptotic cells,LP-1 cells [4],significantly increased
same,number of apoptotic cells,[5],significantly increased
